Data published in ChEMBL document CHEMBL5038635, “Discovery of Salidroside-Derivated Glycoside Analogues as Novel Angiogenesis Agents to Treat Diabetic Hind Limb Ischemia” (J Med Chem, 2022).
In brackets after ≈: the same amount, converted by molar mass. Activity calls are given as the source filed them. The rule behind the calls is not given here.

Columns and labels:
HUVEC [1] = assay: Angiogenesis activity in human HUVEC cells assessed as suppression of cell migration using conditioned medium of mouse C2C12 cells treated at 30 uM under hyperglycemic condition for 12 hrs followed by hypoxia for 24 hrs by crystal violet dye based transwell assay; assay type: functional; details: time 36.0 hrs
C2C12 [2] = assay: Angiogenic activity in mouse C2C12 cells assessed as reversal of hyperglycemia-induced reduction in cell number by measuring cell proliferation measured after 12 to 36 hrs; assay type: functional, cell-based
HUVEC [3] = assay: (§1) Antiangiogenesis activity in human HUVEC cells assessed as suppression of cell migration using conditioned medium of mouse C2C12 cells with silenced HIF-1alpha treated at 30 uM under hyperglycemic condition for 12 hrs followed by hypoxia for 24 hrs in presence of PDGF-BB inhibitor CP868596 by crystal violet dye based transwell assay; assay type: functional; details: time 36.0 hrs
[4] = Efflux ratio of Apparent permeability across basolateral to apical side over apical to basolateral side in human Caco-2 cells
C2C12 [5] = assay: Angiogenic activity in mouse C2C12 cells assessed as reversal of hyperglycemia-induced reduction in total cell number at 300 uM measured after 24 to 36 hrs by EdU-incorporation assay; assay type: functional, cell-based; details: time 24-36 hrs
C2C12 [6] = assay: Upregulation of VEGF-A protein expression in mouse C2C12 cells at 30 uM by Western blot analysis; assay type: functional, cell-based
Mus musculus [7] = assay: Antidiabetic activity in diabetic HLI C57BL/6 mouse model assessed as increase in blood perfusion recovery at 30 mg/kg administered intramuscularly measured after 14 days; assay type: functional; details: time 14 day
C2C12 [8] = assay: Induction of proliferation of hyperglycemia-induced mouse C2C12 cell apoptosis assessed as decrease in Annexin V/PI-positive cells at 30 uM pretreated with compound under hyperglycemia condition for 12 hr followed by hypoxia for 24 hrs; assay type: functional, cell-based; details: time 36.0 hrs
C2C12 [9] = assay: Upregulation of TNFRSF12A protein expression in mouse C2C12 cells at 30 uM by Western blot analysis; assay type: functional, cell-based
C2C12 [10] = assay: Upregulation of PIK3CG protein expression in mouse C2C12 cells at 30 uM by Western blot analysis; assay type: functional, cell-based
C2C12 [11] = assay: Apoptotic rate in hyperglycemia-treated mouse C2C12 cells assessed as late apoptotic cells at 30 uM by AnnexinV-FITC/PI staining based flow cytometric analysis (reference value: 10.44 %); assay type: functional
HUVEC [12] = assay: (§2) Induction proliferation of human HUVEC cells assessed as increase in number of EdU-positive cells using conditioned medium of mouse C2C12 cells with silenced HIF-1alpha treated at 30 uM under hyperglycemic condition for 12 hrs followed by hypoxia for 24 hrs in presence of VEGFR inhibitor Ki8751 by EdU-incorporation assay; assay type: functional, cell-based; details: time 36.0 hrs
[13] = Stability in rat plasma assessed as compound remaining at 6.25 to 25 mg/L after 12 hrs by HPLC analysis; assay type: ADME, cell-free; details: at 6.25 to 25 µg/mL, dose 6.25-25 mg/L, read-out: Stability
[14] = Protein binding in human plasma by balanced dialysis method; assay type: ADME, cell-free; details: read-out: PPB (converted)
C2C12 [15] = assay: Apoptotic rate in hyperglycemia-treated mouse C2C12 cells assessed as necrotic cells at 15 uM by AnnexinV-FITC/PI staining based flow cytometric analysis (reference value: 0.56 %); assay type: functional
Mus musculus [16] = assay: Antidiabetic activity in diabetic HLI C57BL/6 mouse model assessed as increase in blood perfusion recovery at 30 mg/kg administered intramuscularly; assay type: functional, organism-based
HUVEC [17] = assay: Angiogenic activity in human HUVEC cells assessed as suppression of F-actin polymerization at 30 uM using conditioned medium of mouse C2C12 cells treated at 30 uM under hyperglycemic condition for 12 hrs followed by hypoxia for 12 hrs by phalloidin staining based confocal microscopy; assay type: functional, cell-based; details: time 24.0 hrs
[18] = Toxicity in diabetic HLI C57BL/6 mouse model assessed as lung pathology at 30 mg/kg, IM administered by HE staining based assay; assay type: organism-based; details: in vivo
C2C12 [19] = assay: Apoptotic rate in hyperglycemia-treated mouse C2C12 cells assessed as viable cells at 30 uM by AnnexinV-FITC/PI staining based flow cytometric analysis (reference value: 81.90 %); assay type: functional; details: read-out: Activity
C2C12 [20] = assay: Upregulation of PDGF-B protein expression in mouse C2C12 cells at 30 uM by Western blot analysis; assay type: functional, cell-based
C2C12 [21] = assay: Angiogenic activity in mouse C2C12 cells assessed as reversal of hyperglycemia-induced reduction in total cell number measured after 12 to 36 hrs; assay type: functional, cell-based
C2C12 [22] = assay: Upregulation of ANG1 protein expression in mouse C2C12 cells at 30 uM by Western blot analysis; assay type: functional, cell-based
MOVAS-1 [23] = assay: Angiogenic activity in mouse MOVAS-1 cells assessed as suppression of F-actin polymerization at 30 uM using conditioned medium of mouse C2C12 cells treated at 30 uM under hyperglycemic condition for 12 hrs followed by hypoxia for 12 hrs by phalloidin staining based confocal microscopy; assay type: functional, cell-based; details: time 24.0 hrs
[24] = Toxicity in diabetic HLI C57BL/6 mouse model assessed as heart pathology at 30 mg/kg, IM administered by HE staining based assay; assay type: organism-based; details: in vivo
Mus musculus [25] = assay: Angiogenic activity in diabetic HLI C57BL/6 mouse model assessed as increase in number of PECAM-1-positive cells at 30 mg/kg administered intramuscularly for 21 days followed by surgery by immunofluorescence analysis; assay type: functional, organism-based; details: time 21.0 day
MOVAS-1 [26] = assay: as §2, with “mouse MOVAS-1” for “human HUVEC”; assay type: functional, cell-based; details: time 36.0 hrs
MOVAS-1 [27] = assay: as §1, with “Angiogenesis” for “Antiangiogenesis”, “mouse MOVAS-1” for “human HUVEC”; assay type: functional; details: time 36.0 hrs
MOVAS-1 [28] = assay: Angiogenesis activity in mouse MOVAS-1 assessed as increase of cell migration using conditioned medium of mouse C2C12 cells with silenced HIF-1alpha treated at 30 uM under hyperglycemic condition for 12 hrs followed by hypoxia for 24 hrs by crystal violet dye based transwell assay; assay type: functional; details: time 36.0 hrs
C2C12 [29] = assay: Reversal of hyperglycemia-induced PDGF-BB protein level reduction in mouse C2C12 cells measured at 30 uM by ELISA; assay type: functional, cell-based
[30] = Water solubility of the compound by HPLC analysis
[31] = Metabolic stability in rat leg muscle homogenates assessed as compound remaining after 30 min by HPLC analysis; assay type: ADME, tissue-based, muscle of leg; details: read-out: Stability

efflux ratio [4]: 1.07
remaining at 12 h [13]: 98.5%
fraction unbound [14]: 0.669
EC50 (C2C12 [21]): 12.7 µM
solubility [30]: 1910 µg/mL (≈ 5.07 mM)
remaining at 0.5 h [31]: 99%
SMILES: COc1ccc(Cc2cccc(O[C@@H]3O[C@H](CO)[C@@H](O)[C@H](O)[C@H]3O)c2)cc1
Activity (HUVEC [1]): Active
EC50 (C2C12 [2]): 17.3 µM
Activity (HUVEC [3]): inactive
Activity (C2C12 [5]): inactive
Activity (C2C12 [6]): Active
Activity (Mus musculus [7]): 70%
Activity (C2C12 [8]): Active
Activity (C2C12 [9]): Active
Activity (C2C12 [10]): Active
Activity (C2C12 [11]): 3.94%
Activity (HUVEC [12]): inactive
Activity (C2C12 [15]): 0.38%
Activity (Mus musculus [16]): Active
Activity (HUVEC [17]): Active
Activity [18]: Non-Toxic
viability at 30 µM (C2C12 [19]): 93.6%
Activity (C2C12 [20]): Active
Activity (C2C12 [22]): Active
Activity (MOVAS-1 [23]): Active
Activity [24]: Non-Toxic
Activity (Mus musculus [25]): Active
Activity (MOVAS-1 [26]): inactive
Activity (MOVAS-1 [27]): inactive
Activity (MOVAS-1 [28]): Active
Activity (C2C12 [29]): Active
